In ChEMBL document CHEMBL1141234, “Synthesis and SAR of highly potent dual 5-HT1A and 5-HT1B antagonists as potential antidepressant drugs” (Bioorg Med Chem Lett, 2005):
Active and inactive are the calls of the source. No cut-off for these calls is given here.

What was measured:
[1] = biological target: T1, 5-hydroxytryptamine receptor 1B (Homo sapiens, UniProt P28222); assay: Intrinsic activity for 5HT1B receptor in FLIPR assay; assay type: functional
[2] = biological target: T1, 5-hydroxytryptamine receptor 1B; assay: Inhibitory activity against human recombinant 5HT1B receptor co-expressed with G-protein chimera Gqo5 in HEK293 cells by FLIPR; assay type: functional, cell-based
[3] = biological target: Sodium-dependent dopamine transporter (Homo sapiens) (UniProt Q01959); assay: Inhibitory activity against DAT upto 10 uM
[4] = biological target: 5-hydroxytryptamine receptor 5A (Homo sapiens, UniProt P47898); assay: Inhibitory activity against 5HT5A receptor
[5] = biological target: T2, 5-hydroxytryptamine receptor 1A (Rattus norvegicus, UniProt P19327); assay: Binding affinity for rat 5HT1A receptor
T2 sequence (P19327 whole entry): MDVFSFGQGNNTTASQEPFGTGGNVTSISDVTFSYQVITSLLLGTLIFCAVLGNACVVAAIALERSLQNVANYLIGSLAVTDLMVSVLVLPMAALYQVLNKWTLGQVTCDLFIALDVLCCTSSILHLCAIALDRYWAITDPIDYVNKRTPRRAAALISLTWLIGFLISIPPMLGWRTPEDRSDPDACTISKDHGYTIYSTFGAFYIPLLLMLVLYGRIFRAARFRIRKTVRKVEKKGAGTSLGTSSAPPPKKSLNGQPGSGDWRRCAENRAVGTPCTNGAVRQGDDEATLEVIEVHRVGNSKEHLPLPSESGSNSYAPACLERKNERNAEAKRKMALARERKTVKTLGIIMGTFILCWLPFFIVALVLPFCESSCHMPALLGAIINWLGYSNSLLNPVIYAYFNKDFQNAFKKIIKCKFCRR

[6] = biological target: T3, 5-hydroxytryptamine receptor 1A (Homo sapiens, UniProt P08908); assay: Displacement of [35S]GTP-gamma-S from human recombinant 5HT1A receptor; assay type: functional
T3 sequence (P08908 whole entry): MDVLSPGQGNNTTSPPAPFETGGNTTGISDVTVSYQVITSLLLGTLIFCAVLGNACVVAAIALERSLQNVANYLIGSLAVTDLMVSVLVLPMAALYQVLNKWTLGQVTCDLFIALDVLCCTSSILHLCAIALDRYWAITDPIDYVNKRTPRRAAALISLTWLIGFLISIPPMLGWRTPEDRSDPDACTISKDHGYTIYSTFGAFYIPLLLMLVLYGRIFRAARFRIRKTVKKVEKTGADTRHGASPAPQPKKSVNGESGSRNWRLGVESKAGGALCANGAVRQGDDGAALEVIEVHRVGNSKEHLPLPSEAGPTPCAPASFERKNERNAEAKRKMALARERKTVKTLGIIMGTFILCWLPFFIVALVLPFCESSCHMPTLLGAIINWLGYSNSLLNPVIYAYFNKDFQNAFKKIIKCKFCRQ

[7] = biological target: T4, 5-hydroxytryptamine receptor 1A (Homo sapiens) (UniProt P08908); assay: Intrinsic activity for 5HT1A receptor in [35S]GTP-gamma-S assay; assay type: functional
T4 sequence (whole entry): T3 sequence (P08908 whole entry)

[8] = biological target: T1, 5-hydroxytryptamine receptor 1B; assay: Functional activity in FLIPR assay for 5HT1B receptor
[9] = biological target: T5, Adrenergic receptor alpha-1 (Homo sapiens, UniProt P35348+P25100+P35368); assay: Inhibitory activity against Adrenergic alpha-1 receptor; assay type: protein assay
T5 sequence (P35348 whole entry): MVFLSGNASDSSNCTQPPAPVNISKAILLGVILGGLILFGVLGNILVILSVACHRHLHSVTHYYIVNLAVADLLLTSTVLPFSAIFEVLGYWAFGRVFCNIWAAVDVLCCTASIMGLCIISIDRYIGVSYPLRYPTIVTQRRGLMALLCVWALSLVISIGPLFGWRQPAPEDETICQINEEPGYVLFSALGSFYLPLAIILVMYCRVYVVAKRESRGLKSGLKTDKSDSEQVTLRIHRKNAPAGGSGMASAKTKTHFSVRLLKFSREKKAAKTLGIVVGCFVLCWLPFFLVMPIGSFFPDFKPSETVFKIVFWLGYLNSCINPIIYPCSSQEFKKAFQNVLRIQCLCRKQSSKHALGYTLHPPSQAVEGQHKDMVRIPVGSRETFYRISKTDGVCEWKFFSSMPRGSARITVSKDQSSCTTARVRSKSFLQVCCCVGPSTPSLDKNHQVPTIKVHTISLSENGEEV
T5 sequence (P25100 whole entry): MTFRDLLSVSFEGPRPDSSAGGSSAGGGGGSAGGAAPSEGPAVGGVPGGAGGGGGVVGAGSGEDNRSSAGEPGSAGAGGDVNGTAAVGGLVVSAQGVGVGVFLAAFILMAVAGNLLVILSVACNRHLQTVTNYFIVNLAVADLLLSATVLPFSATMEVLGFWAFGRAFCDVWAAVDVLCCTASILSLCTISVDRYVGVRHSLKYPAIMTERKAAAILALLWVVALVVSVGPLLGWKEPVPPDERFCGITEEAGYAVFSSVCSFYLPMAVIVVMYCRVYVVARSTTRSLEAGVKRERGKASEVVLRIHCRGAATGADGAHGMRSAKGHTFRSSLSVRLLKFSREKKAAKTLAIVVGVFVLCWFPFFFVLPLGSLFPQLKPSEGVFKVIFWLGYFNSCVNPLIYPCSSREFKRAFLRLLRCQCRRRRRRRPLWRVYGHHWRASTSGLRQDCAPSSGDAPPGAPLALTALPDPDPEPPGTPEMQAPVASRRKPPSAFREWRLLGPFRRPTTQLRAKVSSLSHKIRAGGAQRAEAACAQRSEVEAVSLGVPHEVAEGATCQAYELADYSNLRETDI
T5 sequence (P35368 whole entry): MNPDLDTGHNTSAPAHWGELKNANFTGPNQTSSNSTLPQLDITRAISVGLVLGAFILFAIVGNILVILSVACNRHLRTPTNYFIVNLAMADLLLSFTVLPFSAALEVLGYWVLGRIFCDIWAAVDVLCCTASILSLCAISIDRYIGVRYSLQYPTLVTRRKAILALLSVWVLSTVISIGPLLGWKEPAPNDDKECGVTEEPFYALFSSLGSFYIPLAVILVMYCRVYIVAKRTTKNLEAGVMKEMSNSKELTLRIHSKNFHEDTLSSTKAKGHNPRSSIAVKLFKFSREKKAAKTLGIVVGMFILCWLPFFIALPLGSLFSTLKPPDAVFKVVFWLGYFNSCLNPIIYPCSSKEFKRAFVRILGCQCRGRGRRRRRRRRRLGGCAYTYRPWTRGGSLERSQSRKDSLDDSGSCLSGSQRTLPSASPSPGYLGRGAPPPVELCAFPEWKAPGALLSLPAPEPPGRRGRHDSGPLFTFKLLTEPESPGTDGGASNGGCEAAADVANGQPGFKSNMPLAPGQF

[10] = biological target: Sodium-dependent noradrenaline transporter (Homo sapiens) (UniProt P23975); assay: Inhibitory activity against NET upto 10 uM
[11] = biological target: T6, 5-hydroxytryptamine receptor 2C (Homo sapiens, UniProt P28335); assay: Inhibitory activity against 5HT2C receptor
T6 sequence (P28335 whole entry): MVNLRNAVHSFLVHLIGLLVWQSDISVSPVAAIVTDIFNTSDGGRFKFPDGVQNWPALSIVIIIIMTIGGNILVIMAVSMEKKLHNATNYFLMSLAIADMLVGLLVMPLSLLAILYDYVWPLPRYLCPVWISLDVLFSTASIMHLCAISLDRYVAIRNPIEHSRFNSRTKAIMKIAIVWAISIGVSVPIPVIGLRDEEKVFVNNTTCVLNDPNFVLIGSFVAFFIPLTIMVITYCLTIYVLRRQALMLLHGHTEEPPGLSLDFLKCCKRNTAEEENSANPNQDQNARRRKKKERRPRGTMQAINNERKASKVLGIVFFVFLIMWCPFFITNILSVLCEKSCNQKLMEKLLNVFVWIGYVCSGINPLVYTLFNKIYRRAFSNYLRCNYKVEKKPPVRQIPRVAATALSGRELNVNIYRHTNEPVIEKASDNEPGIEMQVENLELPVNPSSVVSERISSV

[12] = biological target: 5-hydroxytryptamine receptor 1B (Rattus norvegicus, UniProt P28564); assay: Binding affinity for rat 5HT1B receptor
[13] = biological target: 5-hydroxytryptamine receptor 7 (Homo sapiens, UniProt P34969); assay: Inhibitory activity against 5HT7 receptor
[14] = biological target: D(3) dopamine receptor (Homo sapiens, UniProt P35462); assay: Inhibitory activity against dopamine D3 receptor
[15] = biological target: T4, 5-hydroxytryptamine receptor 1A (Homo sapiens); assay: Functional activity in [35S]GTP-gamma-S assay for 5HT1A receptor
[16] = biological target: Sodium-dependent serotonin transporter (Homo sapiens) (UniProt P31645); assay: Inhibitory activity against SERT upto 10 uM
Sodium-dependent serotonin transporter (Homo sapiens), sequence (P31645 whole entry, looked up): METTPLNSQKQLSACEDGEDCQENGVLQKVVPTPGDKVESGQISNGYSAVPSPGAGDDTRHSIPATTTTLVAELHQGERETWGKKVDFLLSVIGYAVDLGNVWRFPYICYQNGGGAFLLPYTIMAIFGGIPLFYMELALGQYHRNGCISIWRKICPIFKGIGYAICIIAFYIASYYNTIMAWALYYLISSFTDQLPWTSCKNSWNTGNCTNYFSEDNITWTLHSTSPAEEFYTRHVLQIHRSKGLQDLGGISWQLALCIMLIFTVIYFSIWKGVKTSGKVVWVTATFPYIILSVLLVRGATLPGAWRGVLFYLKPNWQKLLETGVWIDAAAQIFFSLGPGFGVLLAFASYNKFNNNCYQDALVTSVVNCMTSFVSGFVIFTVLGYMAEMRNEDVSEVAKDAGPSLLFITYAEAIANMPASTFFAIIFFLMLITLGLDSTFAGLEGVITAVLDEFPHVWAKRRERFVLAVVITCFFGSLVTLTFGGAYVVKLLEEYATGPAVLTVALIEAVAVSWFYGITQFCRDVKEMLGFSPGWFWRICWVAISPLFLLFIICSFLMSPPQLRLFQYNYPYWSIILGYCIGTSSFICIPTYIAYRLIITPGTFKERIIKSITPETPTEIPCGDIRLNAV

T1 sequence (P28222 whole entry): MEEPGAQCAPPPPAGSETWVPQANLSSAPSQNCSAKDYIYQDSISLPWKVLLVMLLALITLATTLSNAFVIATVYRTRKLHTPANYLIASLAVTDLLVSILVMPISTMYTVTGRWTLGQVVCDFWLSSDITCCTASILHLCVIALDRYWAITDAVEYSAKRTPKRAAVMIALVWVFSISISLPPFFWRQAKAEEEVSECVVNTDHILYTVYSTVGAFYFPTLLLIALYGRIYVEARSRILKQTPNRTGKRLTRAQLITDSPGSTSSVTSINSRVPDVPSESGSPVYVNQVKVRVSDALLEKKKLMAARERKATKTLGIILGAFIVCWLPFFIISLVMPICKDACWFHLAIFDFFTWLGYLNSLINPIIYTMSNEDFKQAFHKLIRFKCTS
5-hydroxytryptamine receptor 5A, sequence (P47898 whole entry): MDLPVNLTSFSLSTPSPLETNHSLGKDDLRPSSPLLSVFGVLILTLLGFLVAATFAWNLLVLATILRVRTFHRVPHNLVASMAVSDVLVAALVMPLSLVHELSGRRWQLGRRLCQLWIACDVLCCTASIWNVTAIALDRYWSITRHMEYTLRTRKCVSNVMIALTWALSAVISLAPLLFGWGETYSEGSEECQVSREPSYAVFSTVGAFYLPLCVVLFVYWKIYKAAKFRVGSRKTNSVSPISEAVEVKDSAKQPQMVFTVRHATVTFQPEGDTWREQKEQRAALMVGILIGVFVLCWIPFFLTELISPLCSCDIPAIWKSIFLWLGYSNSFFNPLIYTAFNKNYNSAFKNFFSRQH
D(3) dopamine receptor, sequence (P35462 whole entry): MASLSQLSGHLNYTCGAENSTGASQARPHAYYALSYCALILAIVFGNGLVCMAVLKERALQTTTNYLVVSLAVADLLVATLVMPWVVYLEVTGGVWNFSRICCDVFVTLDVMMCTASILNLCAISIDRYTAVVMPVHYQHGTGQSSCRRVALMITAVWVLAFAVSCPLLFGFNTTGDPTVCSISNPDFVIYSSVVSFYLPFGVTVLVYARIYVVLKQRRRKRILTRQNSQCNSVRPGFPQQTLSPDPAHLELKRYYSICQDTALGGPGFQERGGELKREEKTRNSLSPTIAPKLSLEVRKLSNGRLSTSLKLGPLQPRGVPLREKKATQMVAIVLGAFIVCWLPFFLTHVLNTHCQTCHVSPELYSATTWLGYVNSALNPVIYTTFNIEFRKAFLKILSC
Sodium-dependent noradrenaline transporter (Homo sapiens), sequence (P23975 whole entry): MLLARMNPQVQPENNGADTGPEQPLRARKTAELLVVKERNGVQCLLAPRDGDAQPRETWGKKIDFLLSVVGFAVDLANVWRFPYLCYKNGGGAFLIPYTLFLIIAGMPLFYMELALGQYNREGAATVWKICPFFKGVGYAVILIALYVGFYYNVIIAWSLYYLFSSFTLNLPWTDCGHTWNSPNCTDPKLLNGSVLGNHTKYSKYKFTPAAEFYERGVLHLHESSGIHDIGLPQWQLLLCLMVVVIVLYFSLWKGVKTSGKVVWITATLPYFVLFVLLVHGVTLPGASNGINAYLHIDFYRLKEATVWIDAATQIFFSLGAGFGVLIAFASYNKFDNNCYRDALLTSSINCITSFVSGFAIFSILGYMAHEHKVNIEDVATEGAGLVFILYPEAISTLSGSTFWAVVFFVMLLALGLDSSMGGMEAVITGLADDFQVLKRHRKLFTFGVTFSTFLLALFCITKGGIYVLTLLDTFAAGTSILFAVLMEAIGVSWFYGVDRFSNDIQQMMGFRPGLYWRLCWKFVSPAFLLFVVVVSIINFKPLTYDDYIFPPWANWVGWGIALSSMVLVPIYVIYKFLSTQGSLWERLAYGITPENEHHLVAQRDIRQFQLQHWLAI
5-hydroxytryptamine receptor 7, sequence (P34969 whole entry): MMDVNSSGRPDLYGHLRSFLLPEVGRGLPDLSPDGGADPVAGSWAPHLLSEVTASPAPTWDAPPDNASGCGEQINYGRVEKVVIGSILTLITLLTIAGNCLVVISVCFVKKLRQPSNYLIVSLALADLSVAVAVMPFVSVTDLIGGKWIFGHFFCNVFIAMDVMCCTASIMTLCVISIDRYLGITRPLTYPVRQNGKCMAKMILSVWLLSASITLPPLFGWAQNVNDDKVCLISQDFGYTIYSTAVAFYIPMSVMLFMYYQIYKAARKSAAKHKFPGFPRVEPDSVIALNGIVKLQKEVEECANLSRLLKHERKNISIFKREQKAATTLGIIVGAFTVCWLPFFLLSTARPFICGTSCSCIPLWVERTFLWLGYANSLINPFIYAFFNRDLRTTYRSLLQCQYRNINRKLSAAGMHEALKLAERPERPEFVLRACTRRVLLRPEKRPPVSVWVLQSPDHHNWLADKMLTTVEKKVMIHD
5-hydroxytryptamine receptor 1B (Rattus norvegicus, UniProt P28564), sequence (P28564 whole entry): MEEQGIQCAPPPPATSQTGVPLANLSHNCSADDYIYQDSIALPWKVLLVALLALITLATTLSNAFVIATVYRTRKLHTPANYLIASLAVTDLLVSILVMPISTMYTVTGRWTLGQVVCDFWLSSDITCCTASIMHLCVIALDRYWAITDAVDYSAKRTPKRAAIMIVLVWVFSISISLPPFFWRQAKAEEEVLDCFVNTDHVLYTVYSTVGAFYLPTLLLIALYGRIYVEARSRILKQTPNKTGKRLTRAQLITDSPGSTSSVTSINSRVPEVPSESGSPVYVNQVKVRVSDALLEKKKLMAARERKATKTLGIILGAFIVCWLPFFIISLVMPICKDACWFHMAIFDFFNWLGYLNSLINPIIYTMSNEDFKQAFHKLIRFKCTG
Sodium-dependent dopamine transporter (Homo sapiens), sequence (Q01959 whole entry): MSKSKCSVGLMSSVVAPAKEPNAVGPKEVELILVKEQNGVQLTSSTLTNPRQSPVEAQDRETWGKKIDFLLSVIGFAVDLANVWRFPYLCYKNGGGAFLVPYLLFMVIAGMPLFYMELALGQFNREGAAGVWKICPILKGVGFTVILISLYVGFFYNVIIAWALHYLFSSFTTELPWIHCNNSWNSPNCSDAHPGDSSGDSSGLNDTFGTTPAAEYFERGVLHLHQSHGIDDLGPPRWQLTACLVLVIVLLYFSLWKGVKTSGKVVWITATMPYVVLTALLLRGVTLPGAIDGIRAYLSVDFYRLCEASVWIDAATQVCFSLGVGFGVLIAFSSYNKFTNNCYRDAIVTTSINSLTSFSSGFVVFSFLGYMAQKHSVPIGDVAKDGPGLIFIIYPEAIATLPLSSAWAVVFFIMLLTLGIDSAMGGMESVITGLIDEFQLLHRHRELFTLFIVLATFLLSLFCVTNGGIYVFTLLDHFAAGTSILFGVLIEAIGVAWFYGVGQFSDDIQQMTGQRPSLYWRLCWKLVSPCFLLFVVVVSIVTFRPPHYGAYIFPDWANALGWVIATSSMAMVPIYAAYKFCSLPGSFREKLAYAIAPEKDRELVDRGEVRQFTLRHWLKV

Structure (SMILES) | Emax [1] [%] | Ki [2] [nM] | Ki [6] [nM] | Emax [7] [%] | Activity ([8]; filed as antagonist) | Ki [9] [nM] | Activity ([15]; filed as partial agonist) | Activity ([8]; filed as partial agonist) | other results
CN1CCc2c(sc3ncn(CCN4CCN(c5ccnc6ccccc56)CC4)c(=O)c23)C1 | 9 | 9.7 | 6.5 | 6 | Antagonist | 118.1 |  |  | IC50 [2]: 85 nM; Activity [3]: inactive; Ki [4]: > 1000 nM; Ki [5]: 23 nM; IC50 [6]: 1300 nM; Activity [10]: inactive; Ki [11]: 5500 nM; Ki [12]: 117 nM; Ki [13]: 4480 nM; Ki [14]: 1.3 nM; Activity ([15]; filed as antagonist): Antagonist; Activity [16]: inactive
COc1cc(Cl)ccc1N1CCN(CCn2cnc3sc4c(c3c2=O)CCN(C)C4)CC1 | < 20 | 3.3 | 18.8 | 10 | Antagonist | 0.5 | Partial agonist |  | 
CN1CCc2c(sc3ncn(CCN4CCN(c5ccccc5OCc5ccccc5)CC4)c(=O)c23)C1 | 20 | 1.2 | 1.9 | 10 |  | 4 | Partial agonist | Partial agonist | 
COc1ccc(C)cc1N1CCN(CCn2cnc3sc4c(c3c2=O)CCN(C)C4)CC1 | < 20 | 11.9 | 5.6 | 10 | Antagonist | 12.1 | Partial agonist |  | 
CN1CCc2c(sc3ncn(CCN4CCN(c5cccc6ccncc56)CC4)c(=O)c23)C1 | 20 | 0.1 | 0.3 | 10 |  | 1.2 | Partial agonist | Partial agonist | 
CN1CCc2c(sc3ncn(CCN4CCN(c5cccc6ncccc56)CC4)c(=O)c23)C1 | 20 | 1.7 | 1.5 | < 10 |  | 26.7 |  | Partial agonist | Activity ([15]; filed as antagonist): Antagonist
CN1CCc2c(sc3ncn(CCN4CCN(c5cccc6ccsc56)CC4)c(=O)c23)C1 | < 20 | 0.4 | 0.4 | 10 | Antagonist | 0.5 | Partial agonist |  | 
CN1CCc2c(sc3ncn(CCN4CCN(c5ncnc6ccccc56)CC4)c(=O)c23)C1 | > 80 | 320 | 93.4 | < 10 |  | 6780 |  |  | Activity ([8]; filed as agonist): Agonist; Activity ([15]; filed as antagonist): Antagonist
CN1CCc2c(sc3ncn(CCN4CCN(c5cccc6cnccc56)CC4)c(=O)c23)C1 | 20 | 0.9 | 0.9 | 10 |  | 129.1 | Partial agonist | Partial agonist | 
CN1CCc2c(sc3ncn(CCN4CCN(c5ccc6ccccc6n5)CC4)c(=O)c23)C1 | 20 | 36.6 | 9.1 | 10 |  | 121.1 | Partial agonist | Partial agonist | 
CN1CCc2c(sc3ncn(CCN4CCN(c5cccc6c5OCC6)CC4)c(=O)c23)C1 | < 20 | 0.5 | 0.6 | 10 | Antagonist | 0.2 | Partial agonist |  | 
